Test results as given in the supplement of paper PMC11208160.

Assay: recombinant UMI read abundance after kanamycin selection (control-corrected) (log10(CPM+1)); higher = more efficient recombination; extreme values may be limits of the assay; sequences stand for … in AGTGCAGAGAAAATCGGCCAGTTTTCTCTGCCTGCAGTCCGCATGCCGTGGGACCCCTTGGGTTCTAACCTGTTGCCTAGATTTATGCAGCGGACTGCCTTTCTCCCAAAGTGATAAACCGG…AGGTTGGTTTCACT; site = the 11-nt donor
Procedure, shortened: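 For the IS621 bridge recombinase, a pooled Escherichia coli screen tested donor and donor-binding-loop pairs. Cells received the pair library together with a target plasmid encoding a fixed target and T7-inducible recombinase, then went onto IPTG (0.07 mM) plus kanamycin or unselected plates in duplicate. After PCR across the donor–target junction and sequencing, recombinant UMI counts were normalized to CPM, averaged, and scaled by control-derived factors. Each value is given as log10(CPM+1).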
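Also: IS621 bridge recombinase in Escherichia coli cells against a fixed T5 target plasmid.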

Sequence	recombinant UMI read abundance (log10)
GAATATTCATGGACCGGTTTTCCCGGTAATCCGTATTTGTT (site GAAGATTCTAA)	0
GAATATTCATGGACCGGTTTTCCCGGTAATCCGTATTTGTT (site GAATATTCTAA)	0.948
GAATCGCCATGGACCGGTTTTCCCGGTAATCCGTATTTGCA (site GAATAGCCTTG)	0.613
GAATCGCCATGGACCGGTTTTCCCGGTAATCCGTATTTGCA (site GAATCGCCTTG)	0.687
GAATCGCCATGGACCGGTTTTCCCGGTAATCCGTATTTGCA (site GAATGGCCTTG)	0.345
GAATCGCCATGGACCGGTTTTCCCGGTAATCCGTATTTGCA (site GAATTGCCTTG)	0
GAATGACCATGGACCGGTTTTCCCGGTAATCCGTATTTGCA (site GAATGACCTTG)	1.13
GAATGACCATGGACCGGTTTTCCCGGTAATCCGTATTTGCA (site GAATGCCCTTG)	0
GAATGACCATGGACCGGTTTTCCCGGTAATCCGTATTTGCA (site GAATGGCCTTG)	1.02
GAATGACCATGGACCGGTTTTCCCGGTAATCCGTATTTGCA (site GAATGTCCTTG)	0
GAATGCTCATGGACCGGTTTTCCCGGTAATCCGTATTTGAA (site AAATGCTCTTT)	0.536
GAATGCTCATGGACCGGTTTTCCCGGTAATCCGTATTTGAA (site CAATGCTCTTT)	1.08
GAATGCTCATGGACCGGTTTTCCCGGTAATCCGTATTTGAA (site GAATGCTCTTT)	2.05
GAATGCTCATGGACCGGTTTTCCCGGTAATCCGTATTTGAA (site TAATGCTCTTT)	0.684
GAATGGCCATGGACCGGTTTTCCCGGTAATCCGTATTTGCA (site AAATGGCCTTG)	0
GAATGGCCATGGACCGGTTTTCCCGGTAATCCGTATTTGCA (site CAATGGCCTTG)	0
GAATGGCCATGGACCGGTTTTCCCGGTAATCCGTATTTGCA (site GAAAGGCCTTG)	0
GAATGGCCATGGACCGGTTTTCCCGGTAATCCGTATTTGCA (site GAACGGCCTTG)	0
GAATGGCCATGGACCGGTTTTCCCGGTAATCCGTATTTGCA (site GAAGGGCCTTG)	0
GAATGGCCATGGACCGGTTTTCCCGGTAATCCGTATTTGCA (site GAATAGCCTTG)	0.926
GAATGGCCATGGACCGGTTTTCCCGGTAATCCGTATTTGCA (site GAATCGCCTTG)	0.248
GAATGGCCATGGACCGGTTTTCCCGGTAATCCGTATTTGCA (site GAATGACCTTG)	0
GAATGGCCATGGACCGGTTTTCCCGGTAATCCGTATTTGCA (site GAATGCCCTTG)	0.0091
GAATGGCCATGGACCGGTTTTCCCGGTAATCCGTATTTGCA (site GAATGGACTTG)	0.018
GAATGGCCATGGACCGGTTTTCCCGGTAATCCGTATTTGCA (site GAATGGCCTAG)	0

Sequence	recombinant UMI read abundance (log10)
GAATGGCCATGGACCGGTTTTCCCGGTAATCCGTATTTGCA (site GAATGGCCTCG)	0.0219
GAATGGCCATGGACCGGTTTTCCCGGTAATCCGTATTTGCA (site GAATGGCCTGG)	0
GAATGGCCATGGACCGGTTTTCCCGGTAATCCGTATTTGCA (site GAATGGCCTTA)	0.0192
GAATGGCCATGGACCGGTTTTCCCGGTAATCCGTATTTGCA (site GAATGGCCTTC)	0.0145
GAATGGCCATGGACCGGTTTTCCCGGTAATCCGTATTTGCA (site GAATGGCCTTG)	0
GAATGGCCATGGACCGGTTTTCCCGGTAATCCGTATTTGCA (site GAATGGCCTTT)	0.0193
GAATGGCCATGGACCGGTTTTCCCGGTAATCCGTATTTGCA (site GAATGGGCTTG)	0.00704
GAATGGCCATGGACCGGTTTTCCCGGTAATCCGTATTTGCA (site GAATGGTCTTG)	0.0295
GAATGGCCATGGACCGGTTTTCCCGGTAATCCGTATTTGCA (site GAATGTCCTTG)	0
GAATGGCCATGGACCGGTTTTCCCGGTAATCCGTATTTGCA (site GAATTGCCTTG)	0
GAATGGCCATGGACCGGTTTTCCCGGTAATCCGTATTTGCA (site GACTGGCCTTG)	0.0119
GAATGGCCATGGACCGGTTTTCCCGGTAATCCGTATTTGCA (site GAGTGGCCTTG)	0
GAATGGCCATGGACCGGTTTTCCCGGTAATCCGTATTTGCA (site GATTGGCCTTG)	0
GAATGGCCATGGACCGGTTTTCCCGGTAATCCGTATTTGCA (site GCATGGCCTTG)	0
GAATGGCCATGGACCGGTTTTCCCGGTAATCCGTATTTGCA (site GGATGGCCTTG)	0
GAATGGCCATGGACCGGTTTTCCCGGTAATCCGTATTTGCA (site GTATGGCCTTG)	0
GAATGGCCATGGACCGGTTTTCCCGGTAATCCGTATTTGCA (site TAATGGCCTTG)	0.00558
GAATGGGCATGGACCGGTTTTCCCGGTAATCCGTATTTGCA (site GAATGGACTTG)	1.98
GAATGGGCATGGACCGGTTTTCCCGGTAATCCGTATTTGCA (site GAATGGCCTTG)	0.00596
GAATGGGCATGGACCGGTTTTCCCGGTAATCCGTATTTGCA (site GAATGGGCTTG)	2.42
GAATGGGCATGGACCGGTTTTCCCGGTAATCCGTATTTGCA (site GAATGGTCTTG)	2.23
GACAAAACATGGACCGGTTTTCCCGGTAATCCGTATTTGGT (site GACAAAACTAC)	0.855
GACAAAACATGGACCGGTTTTCCCGGTAATCCGTATTTGGT (site GACAAACCTAC)	0
GACAAAACATGGACCGGTTTTCCCGGTAATCCGTATTTGGT (site GACAAAGCTAC)	0.517
GACAAAACATGGACCGGTTTTCCCGGTAATCCGTATTTGGT (site GACAAATCTAC)	0

Sequence	recombinant UMI read abundance (log10)
GACAAACCATGGACCGGTTTTCCCGGTAATCCGTATTTGAT (site GACAAACCTAA)	0
GACAAACCATGGACCGGTTTTCCCGGTAATCCGTATTTGAT (site GACAAACCTAC)	0
GACAAACCATGGACCGGTTTTCCCGGTAATCCGTATTTGAT (site GACAAACCTAG)	0
GACAAACCATGGACCGGTTTTCCCGGTAATCCGTATTTGAT (site GACAAACCTAT)	0
GACAAACCATGGACCGGTTTTCCCGGTAATCCGTATTTGGT (site AACAAACCTAC)	0
GACAAACCATGGACCGGTTTTCCCGGTAATCCGTATTTGGT (site CACAAACCTAC)	0
GACAAACCATGGACCGGTTTTCCCGGTAATCCGTATTTGGT (site GAAAAACCTAC)	0
GACAAACCATGGACCGGTTTTCCCGGTAATCCGTATTTGGT (site GACAAAACTAC)	0
GACAAACCATGGACCGGTTTTCCCGGTAATCCGTATTTGGT (site GACAAACCTAA)	0
GACAAACCATGGACCGGTTTTCCCGGTAATCCGTATTTGGT (site GACAAACCTAC)	0
GACAAACCATGGACCGGTTTTCCCGGTAATCCGTATTTGGT (site GACAAACCTAG)	0
GACAAACCATGGACCGGTTTTCCCGGTAATCCGTATTTGGT (site GACAAACCTAT)	0
GACAAACCATGGACCGGTTTTCCCGGTAATCCGTATTTGGT (site GACAAACCTCC)	0.0384
GACAAACCATGGACCGGTTTTCCCGGTAATCCGTATTTGGT (site GACAAACCTGC)	0
GACAAACCATGGACCGGTTTTCCCGGTAATCCGTATTTGGT (site GACAAACCTTC)	0
GACAAACCATGGACCGGTTTTCCCGGTAATCCGTATTTGGT (site GACAAAGCTAC)	0
GACAAACCATGGACCGGTTTTCCCGGTAATCCGTATTTGGT (site GACAAATCTAC)	0
GACAAACCATGGACCGGTTTTCCCGGTAATCCGTATTTGGT (site GACAACCCTAC)	0
GACAAACCATGGACCGGTTTTCCCGGTAATCCGTATTTGGT (site GACAAGCCTAC)	0.00399
GACAAACCATGGACCGGTTTTCCCGGTAATCCGTATTTGGT (site GACAATCCTAC)	0
GACAAACCATGGACCGGTTTTCCCGGTAATCCGTATTTGGT (site GACACACCTAC)	0
GACAAACCATGGACCGGTTTTCCCGGTAATCCGTATTTGGT (site GACAGACCTAC)	0
GACAAACCATGGACCGGTTTTCCCGGTAATCCGTATTTGGT (site GACATACCTAC)	0
GACAAACCATGGACCGGTTTTCCCGGTAATCCGTATTTGGT (site GACCAACCTAC)	0.00428
GACAAACCATGGACCGGTTTTCCCGGTAATCCGTATTTGGT (site GACGAACCTAC)	0
